Test results reported in BigSolDB 2.1.

O=C(Nc1ccc([N+](=O)[O-])cc1Cl)c1cc(Cl)ccc1O
solubility (mole fraction)
Conditions	in DMSO	in ethanol	in isopropanol	in methanol	in n-butanol	in water
298.15 K	0.000152	0.000166	0.000242	7.78e-05	0.000305	3.27e-07
303.15 K	0.000161	0.000183	0.000274	7.69e-05	0.000309	4.12e-07
308.15 K	0.000165	0.000186	0.000279	6.9e-05	0.000345	4.19e-07
313.15 K	0.000167	0.000186	0.000304	6.75e-05	0.000347	4.27e-07
318.15 K	0.00017	0.000199	0.000345	5.9e-05	0.000402	4.74e-07
323.15 K	0.000205	0.0002	0.000348	5.35e-05	0.000591	6.04e-07

Conditions	solubility (mole fraction)
in PEG-200, 298.15 K	0.000527
in PEG-200, 303.15 K	0.000556
in PEG-200, 308.15 K	0.000604
in PEG-200, 313.15 K	0.000666
in PEG-200, 318.15 K	0.000686
in PEG-200, 323.15 K	0.00079
in PEG-400, 298.15 K	0.0011
in PEG-400, 303.15 K	0.00129
in PEG-400, 308.15 K	0.00138
in PEG-400, 313.15 K	0.00159
in PEG-400, 318.15 K	0.00168
in PEG-400, 323.15 K	0.00193
